PubChem BioAssay AID248 (DTP/NCI, 2004)
Where “and” joins values, the source holds several entries; their conditions need not be identical. Equal entries are not always repeated. Toxic doses and inconclusive results are not listed. Rule as the data show it: active = T/C of 150% or more; inactive = T/C below 125%.

System: L1210 leukemia ip in BDF1 mice, survival T/C
Assay: NCI In Vivo Anticancer Drug Screen. Data for tumor model L1210 Leukemia (intraperitoneal) in B6D2F1 (BDF1) mice
Conditions: higher = longer survival
How it was run: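 Value reflects the ratio of survival in compound-treated mice to survival in vehicle-treated controls, with both groups carrying the same transplanted tumor.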

[1] = endpoint: mean survival time, dose: 100.0 mg/kg/injection, schedule: Q01DX001 (ip), vehicle: carboxymethylcellulose (CMC)
[2] = endpoint: mean survival time, dose: 200.0 mg/kg/injection, schedule: Q01DX001 (ip), vehicle: carboxymethylcellulose (CMC)
[3] = endpoint: mean survival time, dose: 400.0 mg/kg/injection, schedule: Q01DX001 (ip), vehicle: carboxymethylcellulose (CMC)
[4] = endpoint: mean survival time, dose: 100.0 mg/kg/injection, schedule: Q04DX003 (ip), vehicle: Klucel (hydroxypropylcellulose) (HPC)
[5] = endpoint: mean survival time, dose: 200.0 mg/kg/injection, schedule: Q04DX003 (ip), vehicle: Klucel (hydroxypropylcellulose) (HPC)
[6] = endpoint: mean survival time, dose: 400.0 mg/kg/injection, schedule: Q04DX003 (ip), vehicle: Klucel (hydroxypropylcellulose) (HPC)
[7] = endpoint: mean survival time, dose: 100.0 mg/kg/injection, schedule: Q01DX001 (ip), vehicle: saline
[8] = endpoint: mean survival time, dose: 200.0 mg/kg/injection, schedule: Q01DX001 (ip), vehicle: saline
[9] = endpoint: mean survival time, dose: 400.0 mg/kg/injection, schedule: Q01DX001 (ip), vehicle: saline

Measured: T/C

COC(=O)C[C@](O)(CCC(C)(C)O)C(=O)O[C@@H]1C(OC)=C[C@]23CCCN2CCc2cc4c(cc2[C@H]13)OCO4
inactive: endpoint: mean survival time, dose: 0.13 mg/kg/injection, schedule: Q#A X018 (ip), vehicle: saline 116 % of control | endpoint: mean survival time, dose: 0.25 mg/kg/injection, schedule: Q01DX009 (ip), vehicle: saline 104 % of control and 117 % of control and 124 % of control | endpoint: mean survival time, dose: 0.25 mg/kg/injection, schedule: Q01DX009 (ip), vehicle: water 118 % of control | endpoint: mean survival time, dose: 0.25 mg/kg/injection, schedule: Q03HX008 (ip), vehicle: saline 109 % of control | endpoint: mean survival time, dose: 0.25 mg/kg/injection, schedule: Q03HX016 (ip), vehicle: saline 113 % of control | endpoint: mean survival time, dose: 0.25 mg/kg/injection, schedule: Q03HX024 (ip), vehicle: saline 118 % of control | endpoint: mean survival time, dose: 0.25 mg/kg/injection, schedule: Q#A X018 (ip), vehicle: saline 114 % of control | endpoint: mean survival time, dose: 0.5 mg/kg/injection, schedule: Q01DX009 (oral), vehicle: saline 105 % of control | endpoint: mean survival time, dose: 0.5 mg/kg/injection, schedule: Q01DX009 (sc), vehicle: saline 110 % of control | endpoint: mean survival time, dose: 0.5 mg/kg/injection, schedule: Q03HX008 (ip), vehicle: saline 116 % of control | endpoint: mean survival time, dose: 0.5 mg/kg/injection, schedule: Q03HX016 (ip), vehicle: saline 107 % of control | endpoint: mean survival time, dose: 0.5 mg/kg/injection, schedule: Q03HX024 (ip), vehicle: saline 119 % of control | endpoint: mean survival time, dose: 0.5 mg/kg/injection, schedule: Q#A X018 (ip), vehicle: saline 122 % of control | endpoint: mean survival time, dose: 1.0 mg/kg/injection, schedule: Q01DX009 (oral), vehicle: saline 111 % of control | endpoint: mean survival time, dose: 1.0 mg/kg/injection, schedule: Q01DX009 (sc), vehicle: saline 121 % of control | endpoint: mean survival time, dose: 1.0 mg/kg/injection, schedule: Q03HX008 (ip), vehicle: saline 124 % of control | endpoint: mean survival time, dose: 2.0 mg/kg/injection, schedule: Q01DX001 (ip), vehicle: saline 113 % of control | endpoint: mean survival time, dose: 2.0 mg/kg/injection, schedule: Q01DX009 (oral), vehicle: saline 112 % of control | endpoint: mean survival time, dose: 2.0 mg/kg/injection, schedule: Q04DX003 (ip), vehicle: saline 105 % of control | endpoint: mean survival time, dose: 2.0 mg/kg/injection, schedule: Q08DX002 (ip), vehicle: saline 101 % of control | endpoint: mean survival time, dose: 2.0 mg/kg/injection, schedule: Q#A X018 (ip), vehicle: saline 113 % of control | endpoint: mean survival time, dose: 4.0 mg/kg/injection, schedule: Q01DX001 (ip), vehicle: saline 110 % of control | endpoint: mean survival time, dose: 4.0 mg/kg/injection, schedule: Q01DX009 (ip), vehicle: saline 119 % of control and 124 % of control | endpoint: mean survival time, dose: 4.0 mg/kg/injection, schedule: Q01DX009 (oral), vehicle: saline 98 % of control | endpoint: mean survival time, dose: 4.0 mg/kg/injection, schedule: Q01DX009 (sc), vehicle: saline 92 % of control | endpoint: mean survival time, dose: 4.0 mg/kg/injection, schedule: Q04DX003 (ip), vehicle: saline 123 % of control | endpoint: mean survival time, dose: 4.0 mg/kg/injection, schedule: Q08DX002 (ip), vehicle: saline 107 % of control | endpoint: mean survival time, dose: 8.0 mg/kg/injection, schedule: Q01DX001 (ip), vehicle: saline 117 % of control | endpoint: mean survival time, dose: 8.0 mg/kg/injection, schedule: Q04DX003 (ip), vehicle: saline 87 % of control | endpoint: mean survival time, dose: 8.0 mg/kg/injection, schedule: Q08DX002 (ip), vehicle: saline 107 % of control | endpoint: mean survival time, dose: 16.0 mg/kg/injection, schedule: Q08DX002 (ip), vehicle: saline 98 % of control | endpoint: median survival time, dose: 0.25 mg/kg/injection, schedule: Q01DX009 (ip), vehicle: saline 100 % of control and 101 % of control | endpoint: median survival time, dose: 0.5 mg/kg/injection, schedule: Q01DX009 (ip), vehicle: saline 105 % of control and 107 % of control | endpoint: median survival time, dose: 1.0 mg/kg/injection, schedule: Q01DX009 (ip), vehicle: saline 110 % of control and 115 % of control

COC1OCC(NC(=O)C(F)(F)F)C(OC(C)=O)C1OC(C)=O (stereo not given)
inactive: endpoint: mean survival time, dose: 50.0 mg/kg/injection, schedule: Q01DX001 (ip), vehicle: carboxymethylcellulose (CMC) 94 % of control | [1] 100 % of control | [2] 105 % of control | [3] 100 % of control

CC1(O)CCC2CC1C2(C)CO (stereo not given)
inactive: endpoint: mean survival time, dose: 50.0 mg/kg/injection, schedule: Q04DX003 (ip), vehicle: Klucel (hydroxypropylcellulose) (HPC) 108 % of control | [4] 101 % of control | [5] 106 % of control | [6] 111 % of control

CS(=O)(=O)n1c(CO)nc2ccccc21
inactive: [1] 101 % of control | [2] 92 % of control | [3] 97 % of control

CCCCOC(=O)c1ccc(NC(=O)Nc2ccc([N+](=O)[O-])cc2OC)cc1
inactive: endpoint: mean survival time, dose: 100.0 mg/kg/injection, schedule: Q01DX009 (ip), vehicle: other 98 % of control | endpoint: mean survival time, dose: 200.0 mg/kg/injection, schedule: Q01DX009 (ip), vehicle: other 104 % of control | endpoint: mean survival time, dose: 400.0 mg/kg/injection, schedule: Q01DX009 (ip), vehicle: other 87 % of control

CCCCC(=O)N1CCOCC1
inactive: endpoint: mean survival time, dose: 100.0 mg/kg/injection, schedule: Q04DX002 (ip), vehicle: saline 107 % of control | endpoint: mean survival time, dose: 200.0 mg/kg/injection, schedule: Q04DX002 (ip), vehicle: saline 101 % of control | endpoint: mean survival time, dose: 400.0 mg/kg/injection, schedule: Q04DX002 (ip), vehicle: saline 107 % of control

COC(=O)CCSCCC(=O)OC
inactive: endpoint: mean survival time, dose: 100.0 mg/kg/injection, schedule: Q01DX009 (ip), vehicle: Klucel (hydroxypropylcellulose) (HPC) 105 % of control | [4] 103 % of control | endpoint: mean survival time, dose: 200.0 mg/kg/injection, schedule: Q01DX009 (ip), vehicle: Klucel (hydroxypropylcellulose) (HPC) 97 % of control | [5] 101 % of control | endpoint: mean survival time, dose: 400.0 mg/kg/injection, schedule: Q01DX009 (ip), vehicle: Klucel (hydroxypropylcellulose) (HPC) 95 % of control | [6] 105 % of control

CCOC(=O)c1cc2c3n(c1=O)CCCC3C(c1ccccn1)OC2=O (stereo not given)
inactive: [7] 92 % of control | [8] 98 % of control | [9] 103 % of control

COCOCP(=O)(OC)OC
inactive: endpoint: mean survival time, dose: 100.0 mg/kg/injection, schedule: Q01DX001 (ip), vehicle: acetone 102 % of control | endpoint: mean survival time, dose: 100.0 mg/kg/injection, schedule: Q04DX003 (ip), vehicle: acetone 106 % of control | endpoint: mean survival time, dose: 200.0 mg/kg/injection, schedule: Q01DX001 (ip), vehicle: acetone 98 % of control | endpoint: mean survival time, dose: 200.0 mg/kg/injection, schedule: Q04DX003 (ip), vehicle: acetone 98 % of control | endpoint: mean survival time, dose: 400.0 mg/kg/injection, schedule: Q01DX001 (ip), vehicle: acetone 95 % of control | endpoint: mean survival time, dose: 400.0 mg/kg/injection, schedule: Q04DX003 (ip), vehicle: acetone 92 % of control

Cc1ccc(OC(=O)C(C(=O)Oc2ccc(C)cc2)C(=O)Oc2ccc(C)cc2)cc1
inactive: endpoint: mean survival time, dose: 25.0 mg/kg/injection, schedule: Q01DX001 (ip), vehicle: saline with Tween-80 104 % of control | endpoint: mean survival time, dose: 50.0 mg/kg/injection, schedule: Q01DX001 (ip), vehicle: saline with Tween-80 101 % of control | endpoint: mean survival time, dose: 100.0 mg/kg/injection, schedule: Q01DX001 (ip), vehicle: saline with Tween-80 95 % of control and 98 % of control

N=C(N)c1ccccc1
inactive: endpoint: mean survival time, dose: 100.0 mg/kg/injection, schedule: Q01DX Z (ip), vehicle: methylcellulose (MC) 94 % of control | endpoint: mean survival time, dose: 150.0 mg/kg/injection, schedule: Q01DX Z (ip), vehicle: methylcellulose (MC) 96 % of control and 89 % of control

c1ccc(-c2ccc3ncccc3c2)cc1
inactive: [7] 97 % of control | [8] 100 % of control | [9] 105 % of control

O=C1OCC/C1=C/CCCCCC/C=C1\CCOC1=O
inactive: endpoint: mean survival time, dose: 50.0 mg/kg/injection, schedule: Q01DX009 (ip), vehicle: DMSO 92 % of control | endpoint: mean survival time, dose: 100.0 mg/kg/injection, schedule: Q01DX009 (ip), vehicle: DMSO 90 % of control | endpoint: mean survival time, dose: 100.0 mg/kg/injection, schedule: Q04DX003 (ip), vehicle: DMSO 102 % of control | endpoint: mean survival time, dose: 200.0 mg/kg/injection, schedule: Q01DX009 (ip), vehicle: DMSO 91 % of control | endpoint: mean survival time, dose: 200.0 mg/kg/injection, schedule: Q04DX003 (ip), vehicle: DMSO 101 % of control | endpoint: mean survival time, dose: 400.0 mg/kg/injection, schedule: Q04DX003 (ip), vehicle: DMSO 94 % of control

Cc1cc(C2=NCCN2)ccc1NC(=O)c1ccc(C(=O)Nc2ccc(C3=NCCN3)cc2C)cc1
inactive: endpoint: mean survival time, dose: 15.0 mg/kg/injection, schedule: Q01DX Z (ip), vehicle: saline 100 % of control | endpoint: mean survival time, dose: 30.0 mg/kg/injection, schedule: Q01DX Z (ip), vehicle: saline 106 % of control | endpoint: mean survival time, dose: 60.0 mg/kg/injection, schedule: Q01DX Z (ip), vehicle: saline 110 % of control

Nc1nc2ncc(CNc3ncc(C(=O)NC(CCC(=O)O)C(=O)O)s3)nc2c(=O)[nH]1 (stereo not given)
inactive: endpoint: mean survival time, dose: 50.0 mg/kg/injection, schedule: Q01DX001 (ip), vehicle: other 105 % of control | endpoint: mean survival time, dose: 100.0 mg/kg/injection, schedule: Q01DX001 (ip), vehicle: other 106 % of control
